Data from ChEMBL document CHEMBL1201862, “PubChem BioAssay data set” (2004).
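Cultured in 96-well plates, cells were exposed to test compound for 48 hours across five concentrations. At the GI50, growth is halved.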 Active and inactive are the calls of the source. No stated cut-off is given here; in the data, active = GI50 up to about 1.1 µM and inactive = higher.

Tests used:
Experiment in all cases: growth of human tumour cells (NCI), 48 h
SR = tested on: SR
TK-10 = tested on: TK-10
MDA-MB-231 = tested on: MDA-MB-231
HT-29 = tested on: HT-29
786-0 = tested on: 786-0
K562 = tested on: K562
MCF7 = tested on: MCF7
OVCAR-3 = tested on: OVCAR-3
CCRF-CEM = tested on: CCRF-CEM
NCI-H460 = tested on: NCI-H460
IGROV-1 = tested on: IGROV-1
PC-3 = tested on: PC-3
HCT-116 = tested on: HCT-116
A498 = tested on: A498
SF-268 = tested on: SF-268
DU-145 = tested on: DU-145
Hs-578T = tested on: Hs-578T
OVCAR-5 = tested on: OVCAR-5
UO-31 = tested on: UO-31
SF-539 = tested on: SF-539

Measured: GI50

CN(C)S(=O)(=O)c1ccc(Nc2ccc(O)c3c2C(=O)c2c([N+](=O)[O-])ccc(O)c2C3=O)cc1
inactive: SR 54.2 µM | TK-10 56.4 µM | MDA-MB-231 91.2 µM | HT-29 > 100 µM | 786-0 > 100 µM | K562 > 100 µM | MCF7 > 100 µM | OVCAR-3 > 100 µM | CCRF-CEM 4.39 µM | NCI-H460 > 100 µM | IGROV-1 > 100 µM | PC-3 > 100 µM | HCT-116 72.9 µM | A498 > 100 µM | SF-268 > 100 µM | DU-145 > 100 µM | Hs-578T > 100 µM | OVCAR-5 > 100 µM | UO-31 > 100 µM

Cc1ncn(-c2ccccc2O)c1C
inactive: SR > 100 µM | TK-10 > 100 µM | MDA-MB-231 > 100 µM | HT-29 > 100 µM | SF-539 > 100 µM | 786-0 > 100 µM | K562 > 100 µM | MCF7 > 100 µM | OVCAR-3 > 100 µM | CCRF-CEM > 100 µM | IGROV-1 > 100 µM | PC-3 > 100 µM | HCT-116 > 100 µM | A498 > 100 µM | SF-268 > 100 µM | DU-145 > 100 µM | Hs-578T > 100 µM | OVCAR-5 > 100 µM | UO-31 > 100 µM

CCCC1C(=O)Nc2cccc3ncn(c23)C1=O (centres undefined)
inactive: SR > 100 µM | MDA-MB-231 > 100 µM | HT-29 > 100 µM | SF-539 > 100 µM | 786-0 > 100 µM | K562 > 100 µM | MCF7 > 100 µM | OVCAR-3 > 100 µM | CCRF-CEM > 100 µM | NCI-H460 > 100 µM | IGROV-1 > 100 µM | PC-3 > 100 µM | HCT-116 > 100 µM | A498 > 100 µM | SF-268 > 100 µM | DU-145 > 100 µM | Hs-578T > 100 µM | OVCAR-5 > 100 µM | UO-31 > 100 µM

CCOc1ccccc1/N=N/C1C(=O)N(C(=O)CC(=O)Nc2ccccc2Cl)N=C1C (centres undefined)
inactive: SR 78.7 µM | TK-10 81.8 µM | MDA-MB-231 97.9 µM | HT-29 > 100 µM | SF-539 > 100 µM | 786-0 > 100 µM | MCF7 > 100 µM | OVCAR-3 55.3 µM | CCRF-CEM 68.7 µM | NCI-H460 40.2 µM | IGROV-1 64.6 µM | PC-3 94.4 µM | HCT-116 87.3 µM | A498 50.1 µM | SF-268 33.7 µM | DU-145 > 100 µM | Hs-578T 22.4 µM | OVCAR-5 > 100 µM | UO-31 47.4 µM

OC1(c2ccccc2)CC2CCC(C1)N2CCCC1(c2ccc(F)cc2)OCCO1 (centres undefined)
inactive: SR 27.3 µM | TK-10 > 100 µM | MDA-MB-231 > 100 µM | HT-29 36.5 µM | SF-539 > 100 µM | 786-0 18.2 µM | K562 > 100 µM | MCF7 > 100 µM | OVCAR-3 > 100 µM | CCRF-CEM 3.66 µM | IGROV-1 > 100 µM | PC-3 22.5 µM | HCT-116 > 100 µM | A498 > 100 µM | SF-268 > 100 µM | DU-145 > 100 µM | Hs-578T > 100 µM | OVCAR-5 79.3 µM | UO-31 54.3 µM

COC(=O)c1c(C)nc(C)c(N=O)c1-c1ccccc1C(F)(F)F
inactive: SR 13.7 µM | TK-10 13.8 µM | MDA-MB-231 18 µM | HT-29 15.7 µM | SF-539 20.7 µM | 786-0 17.6 µM | K562 8.41 µM | MCF7 20.2 µM | OVCAR-3 17.3 µM | CCRF-CEM 6 µM | NCI-H460 80.4 µM | IGROV-1 17.7 µM | PC-3 34.2 µM | HCT-116 16.4 µM | A498 > 100 µM | SF-268 15.8 µM | DU-145 > 100 µM | Hs-578T 19 µM | OVCAR-5 21 µM | UO-31 14.4 µM

Cc1cc(OCc2nnc3n2N=C(c2cc(F)c(Cl)cc2Cl)/C(=C/c2ccc(-c4ccc(Cl)cc4)o2)S3)ccc1Cl
inactive: SR 22.9 µM | TK-10 41.2 µM | MDA-MB-231 12.9 µM | HT-29 21.3 µM | 786-0 > 50 µM | K562 26.9 µM | MCF7 20.5 µM | OVCAR-3 30.5 µM | CCRF-CEM > 50 µM | NCI-H460 29.5 µM | IGROV-1 12.1 µM | PC-3 14.6 µM | HCT-116 48.2 µM | A498 24.7 µM | SF-268 > 50 µM | DU-145 > 50 µM | Hs-578T > 50 µM | OVCAR-5 > 50 µM | UO-31 48.5 µM
